Target: T1, human TLL1 (Homo sapiens, UniProt O43897, I156V/N221S/V284A)
T1 construct: a natural variant of full length native human TLL1 (NM_012464.4); made in house
T1 sequence (O43897 148-1013 I156V/N221S/V284A): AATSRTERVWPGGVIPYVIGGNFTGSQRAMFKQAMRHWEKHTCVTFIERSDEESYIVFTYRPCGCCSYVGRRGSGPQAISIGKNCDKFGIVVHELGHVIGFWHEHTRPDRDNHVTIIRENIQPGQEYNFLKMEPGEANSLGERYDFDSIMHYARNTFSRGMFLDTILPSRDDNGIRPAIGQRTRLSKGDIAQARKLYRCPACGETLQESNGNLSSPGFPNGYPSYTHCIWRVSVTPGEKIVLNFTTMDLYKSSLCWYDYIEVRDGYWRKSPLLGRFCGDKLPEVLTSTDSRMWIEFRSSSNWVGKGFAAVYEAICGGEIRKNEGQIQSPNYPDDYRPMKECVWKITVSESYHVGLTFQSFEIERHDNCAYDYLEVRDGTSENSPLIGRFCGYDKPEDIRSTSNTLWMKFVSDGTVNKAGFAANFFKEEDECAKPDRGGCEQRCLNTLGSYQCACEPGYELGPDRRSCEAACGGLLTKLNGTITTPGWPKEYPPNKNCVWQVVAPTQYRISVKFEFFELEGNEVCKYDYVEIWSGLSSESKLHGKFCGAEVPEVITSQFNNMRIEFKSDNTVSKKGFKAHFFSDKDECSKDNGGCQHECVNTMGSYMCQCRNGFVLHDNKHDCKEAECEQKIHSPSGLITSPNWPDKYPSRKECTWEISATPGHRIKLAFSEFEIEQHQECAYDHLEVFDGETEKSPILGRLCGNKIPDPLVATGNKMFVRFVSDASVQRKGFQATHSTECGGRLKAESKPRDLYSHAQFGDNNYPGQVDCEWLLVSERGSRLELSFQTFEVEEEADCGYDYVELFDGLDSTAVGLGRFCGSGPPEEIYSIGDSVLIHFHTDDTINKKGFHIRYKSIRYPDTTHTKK
Assay: Enzyme inhibition assay for human TLL1
Type: biochemical
Details: 2 nM TLL1, 0.8 μM promyostatin peptide substrate; read-out: pIC50, TLL1 enzyme inhibition assay (converted)
Description: Buffer components are purchased from Sigma-Aldrich (St. Louis, Mo.) or an equivalent supplier. The promyostatin peptide substrate is custom synthesized by American Peptide Company (Sunnyvale, Calif.) using the myostatin protein sequence (Uniprot accession number 014793) surrounding the cleavage site reviewed in Hopkins, D. R., et al., 2007 Matrix Biology, 26, 508-523. The procollagen peptide substrate used in the high enzyme BMP1 cleavage assay is custom synthesized by 21st Century Biochemicals (Marlboro, Mass.) using the procollagen Iα protein sequence (Uniprot accession number P02452) surrounding the cleavage site reviewed in Hopkins, D. R., et al., 2007 Matrix Biology, 26, 508-523.
The DNA sequence encoding a natural variant of full length native human TLL1 (NM_012464.4) containing three amino acid substitutions I156V, N221S, V284A is amplified from human heart and brain cDNA and subcloned into the pCDN expression vector. The plasmid is electroporated into CHOE1A cells. […]
Inhibition of human TLL1 and TLL2 recombinant enzymes is measured in 10 ul endpoint assays in 384-well format using the same promyostatin peptide substrate employed in the above Enzyme Inhibition Assay for human BMP1. […] TLL1 and TLL2 reactions are quenched with 5 μl of 0.5 M EDTA and plates are read on a ViewLux (Perkin Elmer) multilabel plate reader using a 480 nm excitation filter and 540 nm emission filter. […]

- IC50: < 398 nM
SMILES: CCCCC[C@@H](C(=O)NCNC(=O)c1ccc(-c2ccc(C(=O)O)cc2)o1)[C@@H](CC)N(O)C=O [WO2015/104684 Example 71, 4-(5-((((R)-2-((R)-1-(N-hydroxyformamido)propyl)heptanamido)methyl)carbamoyl)furan-2-yl)benzoic acid]
